Measured values taken from PMC12715805, “Screening apelin analogues and a small molecule agonist as effective cardiovascular therapeutics against reperfusion injury” (RSC Medicinal Chemistry, 2025).
Blank lines part the entries; values can stand above or below the compound they belong to. Where a SMILES comes first, the peptide text is derived from it. [ ]: non-standard residue; d: D form. The star is where a group is joined. Phe(4-Br) = N[C@@H](Cc1ccc(Br)cc1)C(=O)O; PEG6 = NCCOCCOCCOCCOCCOCCOCCC(=O)O; NMeL = CN[C@@H](CC(C)C)C(=O)O; Nle = CCCC[C@H](N)C(=O)O; Cbz = O=C(OCc1ccccc1)*; Aib = CC(C)(N)C(=O)O

What was measured:
[1] = system: wild-type male mice (C57BL/6); assay: Blood pressure lowering assay in anesthetized mice; format: in vivo, mouse
Method: The metabolically stable apelin analogues from each isoform, CbzPEG6–NMeLeu17A2 and NMeLeu13A2 along with the small molecule agonist, BMS-986224 (0.5 μmol kg^−1 infusion during 5 min for each compound), were tested for their BP lowering activity in anesthetized wild-type male mice (C57BL/6, 24–30 g). […] In contrast, the hypotensive effect of CbzPEG6–NMeLeu17A2 was observed immediately after infusion. This analogue reduced mean arterial pressure (MAP) by approximately 50% during the experiment, with the effect sustained for more than 30 minutes post-administration. Apelin can act on the endothelial layer of vasculature, leading to systemic changes in blood pressure by increasing the synthesis of nitric oxide (NO).[5] The effect of CbzPEG6–NMeLeu17A2 on […], which decreases the […] resistance by increasing eNOS activation and NO production through the activation of the PI3K/Akt signalling pathway on endothelial cells like other apelin analogues we tested in the previous studies.[5,11]
The blood pressure measurement and apelin injection method has been described in our previous research.[43] During the blood pressure testing, mice aged 12–14 weeks were anesthetized with 1.5% isoflurane in oxygen and monitored throughout the experiment. The blood pressure was measured using a PV loop catheter (model 1.2F, Transonic) […] into the left carotid artery. The monitor system (LabScribe 2.0. Scisense) recorded aortic blood pressure and heart rate. After a 20-minute baseline measurement, CbzPEG6–NMeLeu17A2, NMeLeu13A2, RI13, RI13A2, RI17, RI17A2, and BMS-986224 (0.5 μmol […] body weight) were diluted in saline and consistently infused for 5 min via the right jugular vein. For BMS-986224, 0.1% DMSO was added to saline to help with dilution. Blood pressure was continuously recorded for 60 minutes post-infusion.
3. Effects of APJ agonists on blood pressure
Figure S3. Different effects of apelin analog and receptor agonist on blood pressure and ischemia-reperfusion injury. A) the effect of CbzPEG6–NMeLeu17A2 (n=3) on mean arterial blood pressure (MAP), B) the effect of apelin 13 analog, NMeLeu13A2, on MAP (n=4). The effect of apelin 13 analog reverse enantiomers, C) RI13 (n=4) and D) RI13A2 (n=4), on MAP. The effect of apelin 17 reverse enantiomers, E) RI17 (n=4) and F) RI17A2 (n=4) on MAP. G) The effect of small molecule apelin receptor agonist BMS-986224 on blood pressure (n=4). The MAP recording between 50 and 60 minutes has been averaged and compared with their controls (placebo (n=4)). The vehicle for BMS-986224 is 0.1% DMSO (n=3). The arrow indicates the time when analogs were introduced. Values mean ±SEM and ****P<0.0001, compared to the control group.
(1 picture or pasted object on this page, not shown here)

[2] = system: phospho-ERK1/2 (Thr202/Tyr204); assay: Western blot of ERK1/2 phosphorylation in left ventricular tissue after Langendorff ischemia–reperfusion; set-up: species or system mouse; conditions: n = 6 per group
Method: (§1) Fig. 4 Phosphorylation of Akt and ERK1/2 in left ventricular tissue following ischemia–reperfusion (IR) and treatment with apelin analogues. Protein lysates were analyzed by Western blotting and band intensities quantified by densitometry. (A) Representative Western blots for phosphorylated Akt (p-Akt, Ser473), total Akt, phosphorylated ERK1/2 (p-ERK1/2, Thr202/Tyr204), and total ERK1/2. (B) Quantification of p-Akt/Akt. (C) Quantification of p-ERK1/2/ERK1/2. Data are expressed in arbitrary units relative to aerobic perfusion (control) and presented as mean ± SEM (n = 6 per group). Statistical analysis was performed using one-way ANOVA with Tukey's multiple comparisons test. Symbol key: *p < 0.05 vs. aerobic perfusion; **p < 0.05 vs. aerobic perfusion and placebo; ***p < 0.05 vs. all other groups.
(§2) Protein expression was assessed by Western blot analysis. Left ventricular tissue samples from mice in the Langendorff protocol were homogenized in RIPA buffer supplemented with protease and phosphatase inhibitors (Thermo Fisher Scientific, Waltham, MA, USA). Lysates were cleared by centrifugation at 12 000 × g for 15 min at 4 °C, and protein concentration was determined by the BCA assay (Pierce, Thermo Fisher Scientific, Waltham, MA, USA). Equal amounts of protein (20 μg per lane) were separated on 10% SDS-polyacrylamide gels and transferred to polyvinylidene difluoride (PVDF) membranes (Immobilon-P, MilliporeSigma, Burlington, MA, USA). Membranes were blocked for 1 h at room temperature in 5% bovine serum albumin (BSA) prepared in Tris-buffered saline with 0.1% Tween-20 (TBST) and incubated overnight at 4 °C with the following primary antibodies (all from Cell Signaling Technology, Danvers, MA, USA): phospho-Akt (Ser473; #4060), total Akt (#2920), phospho-ERK1/2 (Thr202/Tyr204; #9101), and total ERK1/2 (#4696), each diluted 1 : 1000 in blocking buffer. […] Band intensities were quantified using ImageJ software (National Institutes of Health, Bethesda, MD, USA), and phosphorylated protein levels were normalized to their corresponding total protein.

[3] = system: isolated mouse heart (ischemia–reperfusion injury); assay: Ex vivo Langendorff heart perfusion with ischemia–reperfusion
[4] = system: phospho-Akt (Ser473); assay: Western blot of Akt phosphorylation in left ventricular tissue after Langendorff ischemia–reperfusion; set-up: species or system mouse; conditions: n = 6 per group
Method: as §1, §2

[5] = cited from earlier work
Source text: The apelinergic system is a regulator in cardiovascular function and has shown positive effects on myocardial contractility, vasodilation,[4,5] angiogenesis[6] and heart rate.[7] Apelin promotes vasodilation by stimulating nitric oxide (NO) production, with apelin potentiating phosphorylation of Akt and eNOS,[5,8] while its signalling through Akt and ERK pathways also helps regulate cardiac contractility and provides protection against cardiac hypertrophy.[9] Apelin peptide hormones are derived from a 77-residue pre-propeptide and exist as three major isoforms, differentiated by their length, ...

[6] = system: rats; conditions: MI rat model; hypertension-induced cardiac dysfunction rat model; cited from earlier work
Source text: Another avenue being investigated is the use of small molecule as agonists for the apelinR, such as, Bristol Myers Squibb's BMS-986224,[26,27] Amgen's AMG986,[28] and Davenport's CMF-019.[29] […] In contrast, the two non peptidic apelinR agonists, BMS-98622 ...

[7] = target: T1, apelinR / human Gαi1 (Homo sapiens, UniProt P35414); assay: ebBRET Gαi1 activation; format: cell-based; conditions: HEK293 cells transfected with apelinR, human Gαi1, Rap1GAP-RlucII, rGFP-CAAX; 10 min at 37 °C; mean ± SEM of 5 to 6 independent experiments; read-out: Gαi1 activation log EC50 (converted)
T1 sequence (P35414 1-380): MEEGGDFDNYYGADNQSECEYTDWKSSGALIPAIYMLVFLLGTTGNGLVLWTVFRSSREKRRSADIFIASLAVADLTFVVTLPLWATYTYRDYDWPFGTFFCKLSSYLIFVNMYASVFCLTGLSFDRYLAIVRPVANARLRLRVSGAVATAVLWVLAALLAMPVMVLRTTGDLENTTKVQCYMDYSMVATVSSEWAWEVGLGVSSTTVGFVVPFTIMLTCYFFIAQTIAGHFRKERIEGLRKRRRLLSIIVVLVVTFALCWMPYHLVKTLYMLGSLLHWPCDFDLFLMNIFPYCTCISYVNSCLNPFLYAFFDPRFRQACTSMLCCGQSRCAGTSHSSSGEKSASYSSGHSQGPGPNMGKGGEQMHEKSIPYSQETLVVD

[8] = target: T2, apelinR / human Gαi2 (Homo sapiens, UniProt P35414); assay: ebBRET Gαi2 activation; format: cell-based; conditions: HEK293 cells transfected with apelinR, human Gαi2, Rap1GAP-RlucII, rGFP-CAAX; 10 min at 37 °C; mean ± SEM of 5 to 6 independent experiments; read-out: Gαi2 activation log EC50 (converted)
T2 sequence (P35414 1-380): T1 sequence (P35414 1-380)

[9] = target: T3, apelinR / β-arrestin2 (Homo sapiens, UniProt P35414); assay: ebBRET β-arrestin2 recruitment; format: cell-based; conditions: HEK293 cells transfected with apelinR, β-arrestin2-RlucII, rGFP-CAAX; 10 min at 37 °C; mean ± SEM of 5 to 6 independent experiments; read-out: β-arr2 recruitment log EC50 (converted)
T3 sequence (P35414 1-380): T1 sequence (P35414 1-380)

[10] = target: T4, apelinR / β-arrestin1 (Homo sapiens, UniProt P35414); assay: ebBRET β-arrestin1 recruitment; format: cell-based; conditions: HEK293 cells transfected with apelinR, β-arrestin1-RlucII, rGFP-CAAX; 10 min at 37 °C; mean ± SEM of 5 to 6 independent experiments; read-out: β-arr1 recruitment log EC50 (converted)
T4 sequence (P35414 1-380): T1 sequence (P35414 1-380)

SMILES: CCCC[C@H](NC(=O)[C@@H]1CCCN1C(=O)CNC(=O)[C@H](CCCCN)NC(=O)[C@H](Cc1c[nH]cn1)NC(=O)[C@H](CO)NC(=O)[C@H](CC(C)C)N(C)C(=O)[C@H](CCCNC(=N)N)NC(=O)[C@@H]1CCCN1C(=O)[C@H](CCCNC(=N)N)NC(=O)[C@H](CCC(N)=O)NC(=O)[C@H](CCCNC(=N)N)NC(=O)[C@H](CCCNC(=N)N)NC(=O)[C@H](Cc1ccccc1)NC(=O)[C@H](CCCCN)NC(=O)CCOCCOCCOCCOCCOCCOCCNC(=O)OCc1ccccc1)C(=O)NC(C)(C)C(=O)N[C@@H](Cc1ccc(Br)cc1)C(=O)O [CbzPEG6–NMeLeu17A2] ({Cbz-PEG6}-KFRRQRPR[NMeL]SHKGP[Nle][Aib][Phe(4-Br)]-OH; C-terminus assumed)
duration of hypotensive effect post-administration ([1]; 0.5 μmol kg^−1 infusion during 5 min, anesthetized C57BL/6 mice): more than 30 minutes
reduction of mean arterial pressure (MAP) ([1]; 0.5 μmol kg^−1 infusion during 5 min, anesthetized C57BL/6 mice, n = 3): approximately 50%
hypotensive effect (BP lowering activity, in words) ([1]; 0.5 μmol kg^−1 infusion during 5 min via jugular vein, anesthetized wild-type male C57BL/6 mice, compared to vehicle control): significant hypotensive effect
ERK1/2 phosphorylation (p-ERK1/2/ERK1/2), mean difference versus NMeLeu13A2 ([2]; left ventricular tissue after IR, arbitrary units, p < 0.0001): −1.991
ERK1/2 phosphorylation compared with control (in words) ([2]; left ventricular tissue after IR, p < 0.01 (NMeLeu13A2), p < 0.0001 (CbzPEG6–NMeLeu17A2)): significantly increased ERK1/2 phosphorylation
ERK1/2 activation relative to IR (in words) ([2]; p < 0.0001): significant increase in ERK1/2 activation
cardioprotective effect / cardiac function recovery after ischemia–reperfusion (LVDP, RPP, max dP/dt, min dP/dt; in words) ([3]; 1 μM in perfusion buffer for first 10 min of reperfusion after 30 min ischemia, compared to placebo, one-way ANOVA, Dunnett): significant cardioprotective effect and positive inotropic effect
cardiac recovery compared to the placebo treatment (left ventricle contractility, diastolic and systolic function) ([3]; 1 μM, 30 min ischemia, 40 min reperfusion, n = 7): nearly doubled
Akt phosphorylation (p-Akt/Akt), mean difference relative to control ([4]; left ventricular tissue after IR and 1 μM treatment, arbitrary units relative to aerobic perfusion (control), both p < 0.0001): −8.857
Akt phosphorylation (p-Akt/Akt), mean difference versus NMeLeu13A2 ([4]; left ventricular tissue after IR, arbitrary units, p < 0.001): −4.018
Akt phosphorylation compared with IR (in words) ([4]; left ventricular tissue after IR, one-way ANOVA, Tukey): robust enhancement
t1/2 in human plasma [5]: > 18 h

SMILES: COc1cccc(OC)c1-n1c(NS(=O)(=O)[C@@H](C)[C@@H](OC(C)C)c2ncc(C)cn2)nnc1-c1cncc(C)c1 [AM-812337]
change in BP in a myocardial infarction (MI) rat model and a hypertension-induced cardiac dysfunction rat model (in words) [6]: do not induce any change in BP

SMILES: CSCC[C@H](NC(=O)[C@@H]1CCCN1C(=O)CN)C(=O)N1CCC[C@H]1C(=O)N[C@@H](Cc1ccccc1)C(=O)O [apelin-5-mer C-terminal] (H-GPMPF-OH)
EC50 [7]: 1070 nM
EC50 [8]: 1150 nM

Continued, in another order:

EC50 [7]: 490 nM
EC50 [8]: 347 nM
SMILES: CSCC[C@H](NC(=O)[C@@H]1CCCN1C(=O)CNC(=O)[C@H](CCCCN)NC(=O)[C@H](Cc1c[nH]cn1)NC(=O)[C@@H](N)CO)C(=O)N1CCC[C@H]1C(=O)N[C@@H](Cc1ccccc1)C(=O)O [apelin 8-mer C-terminal] (H-SHKGPMPF-OH)

EC50 [7]: 0.0339 nM
EC50 [8]: 0.0219 nM
EC50 [9]: 1.15 nM
EC50 [10]: 1.23 nM
SMILES: CCCC[C@H](NC(=O)[C@@H]1CCCN1C(=O)CNC(=O)[C@H](CCCCN)NC(=O)[C@H](Cc1c[nH]cn1)NC(=O)[C@H](CO)NC(=O)[C@H](CC(C)C)N(C)C(=O)[C@H](CCCNC(=N)N)NC(=O)[C@@H]1CCCN1C(=O)[C@H](CCCNC(=N)N)NC(=O)[C@@H]1CCC(=O)N1)C(=O)NC(C)(C)C(=O)N[C@@H](Cc1ccc(Br)cc1)C(=O)O [NMeLeu13A2]
half-life in human plasma [5]: ~4 h
